#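 Tested at 5 concentrations; 48 h exposure; 96-well plates; endpoints linearly interpolated, else capped at highest concentration. Here, GI50 denotes the concentration required for 50% inhibition of growth.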 Active and inactive are the calls of the source. Cut-off read from the data, not from the text of the source: active = GI50 up to about 1.1 µM and inactive = higher. Where a SMILES comes first, the peptide text is derived from it. The star is where a group is joined. ONb = O=[N+]([O-])c1ccc(CO*)cc1; Boc = CC(C)(C)OC(=O)*
# Columns and labels:
# Test in all cases: NCI anticancer screen, dose series, 48 h
# 786-0 = test system: 786-0
# CCRF-CEM = test system: CCRF-CEM
# DU-145 = test system: DU-145
# HOP-62 = test system: HOP-62
# Hs-578T = test system: Hs-578T
# OVCAR-8 = test system: OVCAR-8
# PC-3 = test system: PC-3
# SF-539 = test system: SF-539
# SK-MEL-28 = test system: SK-MEL-28
# SK-OV-3 = test system: SK-OV-3
# SN12C = test system: SN12C
# SNB-75 = test system: SNB-75
# TK-10 = test system: TK-10
# UACC-257 = test system: UACC-257
# UO-31 = test system: UO-31
# HL-60 = test system: HL-60
# IGROV-1 = test system: IGROV-1
# NCI-H23 = test system: NCI-H23
# NCI-H522 = test system: NCI-H522
Structure (SMILES),GI50 (786-0),GI50 (CCRF-CEM),GI50 (DU-145),GI50 (HOP-62),GI50 (Hs-578T),GI50 (OVCAR-8),GI50 (PC-3),GI50 (SF-539),GI50 (SK-MEL-28),GI50 (SK-OV-3),GI50 (SN12C),GI50 (SNB-75),GI50 (TK-10),GI50 (UACC-257),GI50 (UO-31),GI50 (HL-60),GI50 (IGROV-1),GI50 (NCI-H23),GI50 (NCI-H522)
COc1cccc([C@@H]2CC(=O)c3cc4c(cc3N2)OCO4)c1,> 100 µM (inactive),> 100 µM (inactive),> 100 µM (inactive),> 100 µM (inactive),64.9 µM (inactive),> 100 µM (inactive),> 100 µM (inactive),> 100 µM (inactive),> 100 µM (inactive),> 100 µM (inactive),> 100 µM (inactive),86.3 µM (inactive),> 100 µM (inactive),> 100 µM (inactive),> 100 µM (inactive),,,,
Nc1ccc(C(=O)NN2C(=O)[C@H](Cl)C2c2ccc(Cl)cc2)cc1 (stereo not given in full),1.32 µM (inactive),,1.56 µM (inactive),1.77 µM (inactive),,1.76 µM (inactive),1.6 µM (inactive),1.79 µM (inactive),0.265 µM (active),1.88 µM (inactive),1.04 µM (active),0.223 µM (active),0.838 µM (active),1.74 µM (inactive),2.07 µM (inactive),1.91 µM (inactive),1.65 µM (inactive),0.869 µM (active),2.03 µM (inactive)
CC(=O)c1sc2c(c1O)c(=O)n(-c1ccccc1)c(=S)n2-c1ccccc1,> 100 µM (inactive),> 10 µM (inactive),> 100 µM (inactive),,> 100 µM (inactive),> 100 µM (inactive),,,> 100 µM (inactive),,> 100 µM (inactive),58.7 µM (inactive),> 100 µM (inactive),> 100 µM (inactive),> 100 µM (inactive),> 100 µM (inactive),> 100 µM (inactive),> 100 µM (inactive),> 100 µM (inactive)
CC1[C@@H](OCc2ccccc2)COC(=O)N1Cc1ccccc1 (stereo not given in full),> 100 µM (inactive),> 100 µM (inactive),> 100 µM (inactive),> 100 µM (inactive),> 100 µM (inactive),> 100 µM (inactive),93.8 µM (inactive),,> 100 µM (inactive),> 100 µM (inactive),> 100 µM (inactive),> 100 µM (inactive),> 100 µM (inactive),68.4 µM (inactive),32.7 µM (inactive),,> 100 µM (inactive),52.1 µM (inactive),
O=C1CCCCC[C@]12SC[C@H]1CON=C12,34 µM (inactive),21.9 µM (inactive),33.8 µM (inactive),,59 µM (inactive),65.8 µM (inactive),,41.3 µM (inactive),27.8 µM (inactive),37.4 µM (inactive),23.1 µM (inactive),,> 100 µM (inactive),78.2 µM (inactive),26.9 µM (inactive),25.9 µM (inactive),47.5 µM (inactive),94.8 µM (inactive),22.6 µM (inactive)
COC(=O)c1cc(-c2ccc(-c3ccc(O)cc3)cc2)cc(-c2ccc(-c3ccc(O)cc3)cc2)c1,5.98 µM (inactive),14.8 µM (inactive),,12.1 µM (inactive),,,10.8 µM (inactive),5.33 µM (inactive),13 µM (inactive),15.6 µM (inactive),13.4 µM (inactive),7.74 µM (inactive),13.6 µM (inactive),14.1 µM (inactive),11.5 µM (inactive),,6.44 µM (inactive),8.51 µM (inactive),2.62 µM (inactive)
COc1ccc(C2SCC(=O)N2NC(=O)c2ccc(NC(C)=O)cc2)cc1 (stereo not given),> 100 µM (inactive),,> 100 µM (inactive),> 100 µM (inactive),> 100 µM (inactive),> 100 µM (inactive),,> 100 µM (inactive),> 100 µM (inactive),> 100 µM (inactive),> 100 µM (inactive),> 100 µM (inactive),> 100 µM (inactive),> 100 µM (inactive),> 100 µM (inactive),,> 100 µM (inactive),> 100 µM (inactive),
CSc1ncnc2c1ncn2CCC(=O)O,> 100 µM (inactive),> 100 µM (inactive),> 100 µM (inactive),> 100 µM (inactive),,> 100 µM (inactive),> 100 µM (inactive),> 100 µM (inactive),> 100 µM (inactive),> 100 µM (inactive),> 100 µM (inactive),> 100 µM (inactive),> 100 µM (inactive),> 100 µM (inactive),> 100 µM (inactive),> 100 µM (inactive),> 100 µM (inactive),> 100 µM (inactive),> 100 µM (inactive)
CC(C)=CCC/C(C)=C/CCC(C(=O)COCc1ccccc1)P1(=O)OC(C)(C)CN1C(C)(C)C (stereo not given),48.3 µM (inactive),30.6 µM (inactive),81.7 µM (inactive),> 100 µM (inactive),,,39.3 µM (inactive),> 100 µM (inactive),62.1 µM (inactive),> 100 µM (inactive),> 100 µM (inactive),28.9 µM (inactive),> 100 µM (inactive),84.1 µM (inactive),50.4 µM (inactive),,91.4 µM (inactive),86.5 µM (inactive),32.6 µM (inactive)
CC(C)(C)C1=NC(=S)SC2=NC(=O)C3(NN21)c1ccccc1-c1ccccc13,9.57 µM (inactive),8.71 µM (inactive),> 10 µM (inactive),> 10 µM (inactive),,> 10 µM (inactive),7.21 µM (inactive),,> 10 µM (inactive),> 10 µM (inactive),> 10 µM (inactive),> 10 µM (inactive),> 10 µM (inactive),> 10 µM (inactive),6.58 µM (inactive),6.79 µM (inactive),> 10 µM (inactive),> 10 µM (inactive),9.25 µM (inactive)
COC(=O)[C@@H]1O[C@]12C(CO[Si](C)(C)C(C)(C)C)OC(n1ccc(=O)[nH]c1=O)C2O[Si](C)(C)C(C)(C)C (stereo not given in full),20.6 µM (inactive),> 100 µM (inactive),25.2 µM (inactive),24 µM (inactive),,30.9 µM (inactive),20.9 µM (inactive),19.7 µM (inactive),25.5 µM (inactive),50.8 µM (inactive),30.6 µM (inactive),> 100 µM (inactive),27.1 µM (inactive),22.1 µM (inactive),18.9 µM (inactive),10.1 µM (inactive),17.7 µM (inactive),19.8 µM (inactive),19.7 µM (inactive)
CC(C)CC(NC(=O)OC(C)(C)C)C(=O)NC(CCC(=O)OCc1ccc([N+](=O)[O-])cc1)C(=O)OCc1ccc([N+](=O)[O-])cc1 (stereo not drawn) (Boc-Leu-Glu(ONb)-ONb; configuration not given here),26.1 µM (inactive),19.8 µM (inactive),13.5 µM (inactive),> 100 µM (inactive),,37.1 µM (inactive),27.9 µM (inactive),18.7 µM (inactive),15.8 µM (inactive),,> 100 µM (inactive),16.6 µM (inactive),28.6 µM (inactive),43.8 µM (inactive),82.6 µM (inactive),4.05 µM (inactive),24.4 µM (inactive),20 µM (inactive),4.57 µM (inactive)
